Laboratory results as given in patent US4792545A, “Boholmycin antibiotic” (Bristol-Myers Company, priority 1986, dated 1988).
Converted amounts (≈) assume the structure as drawn.

How the values were obtained:
P. aeruginosa A20601 = experiment: MIC by serial agar dilution; type: cell-based; conditions: Pseudomonas aeruginosa; P. aeruginosa A20601, kanamycin resistant strain; medium A: Nutrient agar; read-out: MIC
[1] = toxic signs in mice, intravenous administration; type: in vivo; conditions: up to a dose of 1,000 mg/kg
[2] = tested on: experimental infections produced by S. aureus, E. coli and K. pneumoniae; experiment: in vivo activity in mice, Table 5 overall; conditions: i.m.
K. pneumoniae A9678 = experiment: MIC by serial agar dilution; type: cell-based; conditions: Klebsiella pneumoniae, medium A: Nutrient agar, read-out: MIC
P. mirabilis A9554 = experiment: MIC by serial agar dilution; type: cell-based; conditions: Proteus mirabilis, medium A: Nutrient agar, read-out: MIC
Mycobacterium ranae = experiment: MIC by serial agar dilution; type: cell-based; conditions: Mycobacterium ranae; medium B: No. 1001 medium; read-out: MIC
E. cloacae A20364 = experiment: MIC by serial agar dilution; type: cell-based; conditions: Enterobacter cloacae; E. cloacae A20364, kanamycin resistant strain; medium A: Nutrient agar; read-out: MIC
S. aureus A20239 = experiment: MIC by serial agar dilution; type: cell-based; conditions: Staphylococcus aureus; S. aureus A20239, kanamycin resistant strain; medium A: Nutrient agar; read-out: MIC
S. aureus Smith [3] = experiment: MIC by serial agar dilution; type: cell-based; conditions: Staphylococcus aureus; S. aureus Smith; medium A: Nutrient agar; read-out: MIC
P. aeruginosa A9930 = experiment: MIC by serial agar dilution; type: cell-based; conditions: Pseudomonas aeruginosa, medium A: Nutrient agar, read-out: MIC
basicity = type: physicochemical
solubility = type: physicochemical
Mycobacterium phlei = experiment: MIC by serial agar dilution; type: cell-based; conditions: Mycolicibacterium phlei; Mycobacterium phlei; medium B: No. 1001 medium; read-out: MIC
stability in solution = type: physicochemical
P. vulgaris A9436 = experiment: MIC by serial agar dilution; type: cell-based; conditions: Proteus vulgaris, medium A: Nutrient agar, read-out: MIC
E. coli K-12 = experiment: MIC by serial agar dilution; type: cell-based; conditions: Escherichia coli, K12, medium A: Nutrient agar, read-out: MIC
E. coli Juhl [4] = experiment: MIC by serial agar dilution; type: cell-based; conditions: Escherichia coli, medium A: Nutrient agar, read-out: MIC
B. subtilis ATCC6633 = experiment: MIC by serial agar dilution; type: cell-based; conditions: Bacillus subtilis, medium A: Nutrient agar, read-out: MIC
M. flavus D-12 = experiment: MIC by serial agar dilution; type: cell-based; conditions: Micrococcus flavus, D12, medium A: Nutrient agar, read-out: MIC
P. aeruginosa A9843A = experiment: microbe, parasite or virus in culture; type: cell-based; conditions: Pseudomonas aeruginosa, A9843A
K. pneumoniae D-11 [5] = experiment: MIC by serial agar dilution; type: cell-based; conditions: Klebsiella pneumoniae, D11, medium A: Nutrient agar, read-out: MIC
E. coli D64 = experiment: stimulating growth of streptomycin-dependent E. coli D64 (paper disc); type: cell-based; conditions: for Growth zone vs E. coli D64, hazy growth zone: value in parentheses
Text: The results are shown in Table 4 wherein the term "boholmycin" is used for short in referring to boholmycin dihydrochloride tetrahydrate.

E. coli JR35/c600 = experiment: MIC by serial agar dilution; type: cell-based; conditions: Escherichia coli, JR35/C600
B. anthracis IID-115 = experiment: microbe, parasite or virus in culture; type: cell-based; conditions: Bacillus anthracis, IID115
M. luteus PCI-1001 = experiment: MIC by serial agar dilution; type: cell-based; conditions: Micrococcus luteus, PCI1001; M. luteus PCI-1001; medium A: Nutrient agar; read-out: MIC
E. coli Juhl [6] = experiment: in vivo efficacy in mice against experimental infection; conditions: Escherichia coli, im, 120 h; mice, i.m. just before challenge, E. coli Juhl, 5 days observation; read-out: PD50
bacteria = experiment: in vitro antibacterial activity, Table 3 panel overall; type: cell-based
Procedure: The minimum inhibitory concentration (MIC) of boholmycin dihydrochloride tetrahydrate was determined by a serial agar dilution method in comparison with sorbistin A1, streptomycin and kanamycin. Nutrient agar (Difco) was used for all bacteria except for strains of Mycobacterium which were tested in No. 1001 agar.

S. marcescens A22302 = experiment: MIC by serial agar dilution; type: cell-based; conditions: Serratia marcescens, A22302
E. coli NIHJ = experiment: MIC by serial agar dilution; type: cell-based; conditions: Escherichia coli, medium A: Nutrient agar, read-out: MIC
Mycobacterium 607 D87 = experiment: MIC by serial agar dilution; type: cell-based; conditions: Mycobacterium 607 D87; medium B: No. 1001 medium; read-out: MIC
S. aureus 209P = experiment: MIC by serial agar dilution; type: cell-based; conditions: Staphylococcus aureus; S. aureus 209P; medium A: Nutrient agar; read-out: MIC
E. cloacae A21006 = experiment: MIC by serial agar dilution; type: cell-based; conditions: Enterobacter cloacae; E. cloacae A21006, kanamycin resistant strain; medium A: Nutrient agar; read-out: MIC
B. subtilis PCI-219 = experiment: inhibiting growth of B. subtilis PCI-219 (paper disc); type: cell-based; conditions: Bacillus subtilis, PCI219, 28° C., 18 hours
Procedure: Boholmycin dihydrochloride tetrahydrate was tested in comparison with streptomycin, glebomycin, myomycin B and kanamycin in respect to stimulating growth of E. coli D64 and in respect to inhibiting growth of B. subtilis PCI-219. The results are shown in Table 4 wherein the term "boholmycin" is used for short in referring to boholmycin dihydrochloride tetrahydrate.
*^1 8 mm paper disc containing 35 μl of test solution
*^3 Incubation at 28° C. for 18 hours

K. pneumoniae D-11 [7] = experiment: in vivo efficacy in mice against experimental infection; conditions: Klebsiella pneumoniae, D11, im, 120 h; mice, i.m. just before challenge, K. pneumoniae D-11, 5 days observation; read-out: PD50
E. coli A20664 = experiment: MIC by serial agar dilution; type: cell-based; conditions: Escherichia coli; E. coli A20664, kanamycin resistant strain; medium A: Nutrient agar; read-out: MIC
Mycobacterium 607 D46 = experiment: MIC by serial agar dilution; type: cell-based; conditions: Mycobacterium 607 D46, kanamycin resistant strain; medium B: No. 1001 medium; read-out: MIC
S. marcescens A20019 = experiment: MIC by serial agar dilution; type: cell-based; conditions: Serratia marcescens, A20019
S. aureus Smith [8] = experiment: in vivo efficacy in mice against experimental infection; conditions: Staphylococcus aureus, im, 120 h; mice, i.m. just before challenge, S. aureus Smith, 5 days observation; read-out: PD50

CNC1C(OC2C(O)C(OC3OC(CO)C(O)C(N)C3O)C(OC(N)=O)C(O)C2OC(N)=O)OCC(OC2OC(C(O)CO)C(O)C(O)C2O)C1O (centres unmarked) [Boholmycin]
MIC (P. aeruginosa A20601): 12.5 µg/mL (≈ 16.3 µM) | toxic signs [1]: did not show any toxic signs | in vivo activity compared with streptomycin and kanamycin [2]: much less active than streptomycin and kanamycin | MIC (K. pneumoniae A9678): 100 µg/mL (≈ 131 µM) | MIC (P. mirabilis A9554): 50 µg/mL (≈ 65.4 µM) | MIC (Mycobacterium ranae): 25 µg/mL (≈ 32.7 µM) | MIC (E. cloacae A20364): 50 µg/mL (≈ 65.4 µM) | MIC (S. aureus A20239): > 200 µg/mL | MIC (S. aureus Smith [3]): 200 µg/mL (≈ 262 µM) | MIC (P. aeruginosa A9930): 100 µg/mL (≈ 131 µM) | basicity (basicity): weakly basic | solubility in methanol and ethanol (solubility; methanol and ethanol): slightly soluble in methanol and ethanol | solubility in other organic solvents (solubility; other organic solvents): practically insoluble in other organic solvents | solubility in water (solubility; water): freely soluble in water | MIC (Mycobacterium phlei): 6.3 µg/mL (≈ 8.24 µM) | stability in alkaline solution (stability in solution; alkaline solution): unstable in alkaline solution | stability in neutral and acidic solution (stability in solution; neutral and acidic solution): reasonably stable in neutral and acidic solution | MIC (P. vulgaris A9436): 6.3 µg/mL (≈ 8.24 µM) | MIC (E. coli K-12): 25 µg/mL (≈ 32.7 µM) | MIC (E. coli Juhl [4]): 100 µg/mL (≈ 131 µM) | MIC (B. subtilis ATCC6633): 50 µg/mL (≈ 65.4 µM) | MIC (M. flavus D-12): 100 µg/mL (≈ 131 µM) | MIC (P. aeruginosa A9843A): 200 µg/mL (≈ 262 µM) | MIC (K. pneumoniae D-11 [5]): 6.3 µg/mL (≈ 8.24 µM) | Growth zone vs E. coli D64, hazy growth zone (E. coli D64; 10 mg/ml, 37° C., 45 hours): 16 mm | Growth zone vs E. coli D64 (E. coli D64; 40 mg/ml, 37° C., 45 hours): 18 mm | Growth zone vs E. coli D64, hazy growth zone (E. coli D64; 40 mg/ml, 37° C., 45 hours): 23 mm | induction/stimulation of growth of streptomycin-dependent E. coli D64 (E. coli D64; result in words): induced the growth | MIC (E. coli JR35/c600): 25 µg/mL (≈ 32.7 µM) | MIC (B. anthracis IID-115): 25 µg/mL (≈ 32.7 µM) | MIC (M. luteus PCI-1001): 200 µg/mL (≈ 262 µM) | ED50 (E. coli Juhl [6]): 100 mg/kg | antibacterial activity compared with sorbistin A1 (bacteria; Table 3 overall, vs sorbistin A1): comparable to that of sorbistin A1 | antibacterial activity compared with streptomycin or kanamycin (bacteria; Table 3 overall, vs streptomycin or kanamycin): generally weaker than that of streptomycin or kanamycin | activity against kanamycin and streptomycin-resistant organisms (bacteria; resistant vs sensitive organisms): as active against kanamycin and streptomycin-resistant organisms as against the sensitive ones | MIC (S. marcescens A22302): 100 µg/mL (≈ 131 µM) | MIC (E. coli NIHJ): 50 µg/mL (≈ 65.4 µM) | MIC (Mycobacterium 607 D87): 25 µg/mL (≈ 32.7 µM) | MIC (S. aureus 209P): 200 µg/mL (≈ 262 µM) | MIC (E. cloacae A21006): 50 µg/mL (≈ 65.4 µM) | zone of inhibition at 10000 µg/mL (B. subtilis PCI-219; 10 mg/ml): 30 mm | zone of inhibition at 40000 µg/mL (B. subtilis PCI-219; 40 mg/ml): 33 mm | ED50 (K. pneumoniae D-11 [7]): 65 mg/kg | MIC (E. coli A20664): 12.5 µg/mL (≈ 16.3 µM) | MIC (Mycobacterium 607 D46): 25 µg/mL (≈ 32.7 µM) | MIC (S. marcescens A20019): 100 µg/mL (≈ 131 µM) | ED50 (S. aureus Smith [8]): 75 mg/kg
